Results: PubChem BioAssay (NCI)
Values after ≈ are worked out from the molar mass of the structure shown. Values joined by “and” are separate entries in the source; they are usually repeats but may differ in a detail not shown here. Equal entries are not always repeated.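 Following 48 hours of exposure in 96-well plates, responses at five concentrations were used to interpolate endpoints linearly. GI50 marks 50% less growth. TGI denotes the concentration required for complete inhibition of growth.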

Key:
Assay in all cases: NCI-60 cell line screen, 48 h
[1] = system: HOP-62 NSCLC
[2] = system: OVCAR-8 ovarian
[3] = system: COLO 205 colon
[4] = system: RXF 393 renal
[5] = system: HCC-2998 colon
[6] = system: HT29 colon
[7] = system: SF-539 CNS
[8] = system: NCI/ADR-RES ovarian
[9] = system: CCRF-CEM leukemia
[10] = system: IGROV1 ovarian
[11] = system: SK-MEL-5 melanoma
[12] = system: HOP-92 NSCLC

O=CN1CCN(C(=O)c2ccc(Cl)c(Cl)c2)C1=S
TGI [1]: 32.9 µM
TGI [2]: 29.4 µM
TGI [3]: 37.8 µM
TGI [4]: 35 µM
TGI [5]: 32.7 µM
TGI [6]: 38.4 µM
TGI [7]: 37 µM
TGI [8]: > 100 µM
TGI [9]: 24.2 µM
TGI [10]: 30.9 µM

CCOC(=O)c1nnc2c(C#N)c(-c3ccccc3)c(C)n2c1N
TGI [1]: > 100 µM
TGI [11]: > 100 µM
TGI [2]: 98.3 µM
TGI [3]: > 100 µM
TGI [4]: > 100 µM
TGI [5]: > 100 µM
TGI [6]: > 100 µM
TGI [7]: > 100 µM
TGI [8]: > 100 µM
TGI [9]: > 100 µM
TGI [10]: 66.6 µM

CCC1NC(N=Nc2ccc([N+](=O)[O-])cc2)(P(=O)(OC(C)C)OC(C)C)OC1=O (stereo unspecified)
TGI [1]: > 100 µM
TGI [11]: > 100 µM
TGI [2]: > 100 µM
TGI [3]: > 100 µM
TGI [5]: > 100 µM
TGI [6]: > 100 µM
TGI [7]: > 100 µM
TGI [9]: > 100 µM
TGI [12]: > 100 µM
TGI [10]: > 100 µM

CCOc1cc2c(c(OCC)c1O)CC[C@@H]1[C@@H]2CC[C@]2(C)[C@@H](O)CC[C@@H]12
TGI [1]: 40.5 µM
TGI [11]: 21.5 µM
TGI [2]: > 100 µM
TGI [3]: 55.3 µM
TGI [4]: 17.1 µM
TGI [6]: 24.7 µM
TGI [7]: 6.71 µM
TGI [8]: 46 µM
TGI [9]: > 100 µM
TGI [12]: 67.6 µM
TGI [10]: > 100 µM

N#CNC(=NCCc1c[nH]c2ccccc12)Oc1ccccc1
TGI [1]: > 100 µM
TGI [11]: > 100 µM
TGI [2]: > 100 µM
TGI [3]: > 100 µM
TGI [4]: > 100 µM
TGI [5]: > 100 µM
TGI [6]: > 100 µM
TGI [7]: > 100 µM
TGI [9]: > 100 µM
TGI [10]: > 100 µM

COC1=C(C)C(=O)c2c(cc3c(c2O)C(C)(CCC=C(C)C)C(C)O3)C1=O (stereo unspecified)
TGI [1]: 34.1 µM
TGI [11]: 27.4 µM
TGI [2]: > 100 µM
TGI [3]: > 100 µM
TGI [4]: > 100 µM
TGI [5]: > 78.8 µM
TGI [6]: > 100 µM
TGI [7]: > 100 µM
TGI [9]: > 100 µM
TGI [12]: > 100 µM
TGI [10]: > 100 µM

COc1cc(C2c3cc4c(cc3[C@@H](NCCN3CCOCC3)C3COC(=O)[C@H]23)OCO4)cc(OC)c1O (stereo partly specified)
TGI [1]: 2.71 µM and 3.8 µM
GI50 [11]: 0.877 µM and 2.77 µM
TGI [11]: 1.88 µM and 12.7 µM
TGI [2]: 11.9 µM
GI50 [3]: 8.01 µM and 1.95 µM
TGI [3]: 19.4 µM and > 17.5 µM
TGI [4]: 9.33 µM and 10.4 µM
TGI [5]: 11.5 µM and 7.24 µM
TGI [6]: 18.1 µM and > 17.5 µM
TGI [7]: 2.53 µM and 3.58 µM
TGI [9]: > 75 µM
TGI [12]: 4.73 µM and 10.4 µM
TGI [10]: 22.4 µM and > 17.5 µM

CN(Cc1cnc2c(N)nc(N)nc2n1)c1ccc(Cl)cc1
TGI [1]: > 100 µM
TGI [11]: > 100 µM
TGI [2]: > 100 µM
TGI [3]: > 100 µM
TGI [4]: 61.5 µM
TGI [7]: 70.9 µM
TGI [8]: > 100 µM
TGI [9]: > 100 µM
TGI [10]: > 100 µM

c1ccc2c(c1)OC(N1CCCC1)c1cnc(N3CCOCC3)nc1-2 (stereo unspecified)
TGI [1]: > 100 µM
TGI [2]: > 100 µM
TGI [3]: > 100 µM
TGI [4]: 60.4 µM
TGI [6]: > 100 µM
TGI [7]: > 100 µM
TGI [9]: > 100 µM
TGI [12]: 55.6 µM

COc1ccccc1C1c2cc3c(cc2OC(N2CCOCC2)C1C)OCO3 (stereo unspecified)
TGI [1]: 35.3 µM
TGI [11]: 31.2 µM
TGI [2]: > 100 µM
TGI [6]: 40.9 µM
TGI [7]: 32 µM
TGI [8]: 61.6 µM
TGI [9]: 34.7 µM
TGI [10]: 81.7 µM

O=C(O)C1CCCCN1c1ccccc1[N+](=O)[O-] (stereo unspecified)
TGI [1]: > 100 µM
TGI [11]: > 100 µM
TGI [2]: > 100 µM
TGI [4]: > 100 µM
TGI [5]: > 100 µM
TGI [6]: > 100 µM
TGI [7]: > 100 µM
TGI [9]: > 100 µM
TGI [12]: > 100 µM
TGI [10]: > 100 µM

COc1cc2c(c(OC)c1OC)-c1ccc(SC)cc1C(O)CC2 (stereo unspecified)
TGI [11]: 1.11 µM and 15.1 µg/mL
TGI [3]: 0.179 µM
GI50 [4]: 16.2 mg/L (≈ 46.7 µM)
TGI [5]: 18.3 µM
TGI [9]: > 100 µM
TGI [12]: > 100 µM
TGI [10]: > 100 µM

Cn1c(N)nc(-c2ccc(Cl)cc2)c1SSc1c(-c2ccc(Cl)cc2)nc(N)n1C
TGI [1]: 7.69 µM
TGI [11]: 3.2 µM
TGI [2]: 5.81 µM
TGI [3]: 3.81 µM
TGI [4]: 5.47 µM
TGI [5]: 20.7 µM
TGI [6]: 4.74 µM
TGI [7]: 3.33 µM
TGI [9]: 5.05 µM
TGI [12]: 3.7 µM
TGI [10]: 9.21 µM

CC(=O)CC1=C(OC(C)C)C2(OCCO2)C1O (stereo unspecified)
TGI [1]: > 100 µM
TGI [11]: > 100 µM
TGI [2]: > 100 µM
TGI [3]: > 100 µM
TGI [4]: > 100 µM
TGI [6]: > 100 µM
TGI [7]: > 100 µM
TGI [9]: > 100 µM
TGI [12]: > 100 µM
TGI [10]: > 100 µM

O=C1c2ccccc2N2Oc3ccccc3C12c1ccccc1 (stereo unspecified)
TGI [1]: > 100 µM
TGI [11]: > 100 µM
TGI [2]: > 100 µM
TGI [3]: > 100 µM
TGI [4]: > 100 µM
TGI [5]: > 100 µM
TGI [6]: > 100 µM
TGI [7]: > 100 µM
TGI [9]: > 100 µM
TGI [12]: > 100 µM
TGI [10]: > 100 µM

COc1ccc(-c2c(C#N)c(S)n(NS(=O)(=O)c3ccccc3)c(=O)c2C#N)cc1
TGI [1]: > 100 µM
TGI [11]: > 100 µM
TGI [2]: > 100 µM
TGI [3]: > 100 µM
TGI [4]: > 100 µM
TGI [5]: > 100 µM
TGI [6]: > 100 µM
TGI [7]: 61.6 µM
TGI [8]: > 100 µM
TGI [9]: > 100 µM
TGI [10]: > 100 µM
